The values below come from EPA's ToxRefDB 2.

The test system of data set [1] is rat. Conditions: Subchronic oral toxicity in rodents, sprague dawley, Gavage/Intubation, dose end: 13 week, group: systemic.
For data set [2], the system named is rat. Conditions: Subchronic dermal toxicity, sprague dawley, Topical, dose end: 13 week, group: systemic.
Data set [3] has as its system dog. Conditions: Chronic toxicity, beagle, Oral, Feed, dose end: 52 week, group: systemic.
Data set [4] deals with mouse. As to conditions: Subchronic oral toxicity in rodents, other, Feed, dose end: 90 day, group: systemic.
Data set [5] has as its system dog. Conditions: Subchronic oral toxicity in nonrodent, beagle, Feed, dose end: 90 day, group: systemic.
For data set [6], the system named is mouse. As to conditions: Combined chronic toxicity/carcinogenicity; Oral; Feed; dose end: 104 week; group: systemic; systemic / in life observation / water consumption / water consumption + systemic / pathology gross / full gross necropsy / abdominal cavity….
Data set [7] relates to rat. Conditions: Subchronic oral toxicity in rodents, sprague dawley, Feed, dose end: 90 day, group: systemic.
For data set [8], the system named is mouse. Conditions: Carcinogenicity; cd1; Oral; Feed; dose end: 78 week; group: systemic; systemic / organ weight / liver / nos + systemic / organ weight / liver / relative to body weight + systemic / pathology microscopic / liver….
Data set [9] has as its system rat. As to conditions: Subchronic oral toxicity in rodents, sprague dawley, Feed, dose end: 13 week, group: systemic.
The test system of data set [10] is rat. Conditions: Multigenerational reproductive toxicity study, Charles River CD, Oral, Feed, dose end: 2 generation.
Data set [11] deals with rat. As to conditions: Prenatal developmental toxicity study, sprague dawley, Oral, Gavage/Intubation, dose end: 19 GD.
The subject of data set [12] is rat. As to conditions: Combined chronic toxicity/carcinogenicity; sprague dawley; Oral; Feed; dose end: 104 week; group: systemic; systemic / clinical chemistry / alanine aminotransferase (alt/sgpt) / alanine aminotransferase (alt/sgpt) + systemic / clinical chemistry / ….
Data set [13] has as its system mouse. Conditions: Subchronic oral toxicity in rodents, cd1, Feed, dose end: 13 week, group: systemic.
Data set [14] concerns dog. Conditions: Chronic toxicity, beagle, Oral, Feed, dose end: 52 week, group: systemic. The source holds these as a separate data set.
For data set [15], the system named is rat. As to conditions: Subchronic oral toxicity in rodents, other, Gavage/Intubation, dose end: 90 day, group: systemic, systemic / hematology / erythrocyte (rbc) count differential / erythrocyte (rbc) + systemic / hematology / hematocrit (hct) / hematocrit (….
Where [16] appears, read: systemic / pathology microscopic / stomach / infiltration cellular + systemic / pathology gross / stomach / discolored + systemic / ….
[17] abbreviates: systemic / pathology microscopic / stomach / infiltration cellular + systemic / pathology gross / stomach / prominent limiting ridge + ….
[18] abbreviates: systemic / in life observation / clinical signs / erythema + systemic / in life observation / clinical signs / body surface staining + ….
The mark [19] stands for this setting: systemic / in life observation / clinical signs / erythema + systemic / pathology microscopic / skin / hyperplasia + systemic / pathology ….
The mark [20] stands for this setting: systemic / clinical chemistry / alanine aminotransferase (alt/sgpt) / alanine aminotransferase (alt/sgpt) + systemic / clinical chemistry / ….
Setting [21] is: systemic / pathology microscopic / liver / hypertrophy.
The mark [22] stands for this setting: systemic / organ weight / ovary / absolute + systemic / organ weight / ovary / relative to body weight.
[23] abbreviates: systemic / clinical chemistry / cholesterol / cholesterol + systemic / organ weight / kidney / absolute + systemic / organ weight / kidney….
[24] abbreviates: systemic / organ weight / liver / absolute + systemic / organ weight / liver / relative to body weight + systemic / pathology microscopic / ….
[25] abbreviates: systemic / hematology / erythrocyte (rbc) count differential / erythrocyte (rbc).
The mark [26] stands for this setting: group: offspring, systemic / in life observation / body weight / offspring (pup) weight + systemic / organ weight / liver / absolute + systemic / organ weight….
Where [27] appears, read: group: parental, systemic / organ weight / spleen / relative to body weight.
Where [28] appears, read: group: reproductive, reproductive / reproductive performance / fertility / fertility.
[29] abbreviates: group: reproductive, reproductive / reproductive performance / fertility / fertility + reproductive / offspring survival early / birth index / live birth index.
[30] abbreviates: group: developmental, developmental / developmental malformation / bone / bent + developmental / developmental malformation / bone / incomplete ossification + ….
The mark [31] stands for this setting: group: maternal, systemic / in life observation / body weight / body weight gain + systemic / in life observation / clinical signs / lethargy + systemic / in….
The mark [32] stands for this setting: systemic / pathology microscopic / liver / [other] + systemic / pathology microscopic / liver / hematopoietic cell proliferation + systemic….
[33] abbreviates: systemic / organ weight / adrenal gland / absolute + systemic / organ weight / heart / absolute + systemic / organ weight / spleen / ….

Molecules are shown by their SMILES. A value given as a limit tells only on which side of the number the result lay.

In general, NOAEL refers to the highest tested level that showed no adverse finding. Broadly, the LOAEL is the lowest tested level that showed an adverse finding.

For the molecule `OCCN1CN(CCO)CN(CCO)C1` [1,3,5-Triazine-1,3,5(2H,4H,6H)-triethanol], in the data set on rat [1] (setting [16]), the NEL is 50 mg/kg/day and the NOAEL was 50 mg/kg/day. In addition, in the data set on rat [1] (setting [17]), the LEL worked out at 100 mg/kg/day and the LOAEL worked out at 100 mg/kg/day. Further, in the data set on rat [2] (setting [18]), the LEL was determined as 5 mg/kg/day and the NEL was under 5 mg/kg/day. In addition, in the data set with rat [2] (setting [19]), the LOAEL came out at 50 mg/kg/day and the NOAEL was 5 mg/kg/day.

As for `COC(=O)c1ccccc1CS(=O)(=O)NC(=O)Nc1nc(OC)cc(OC)n1` [Bensulfuron-methyl], the LOAEL in the data set with dog [3] (setting [20]) is 223 mg/kg/day; with mouse [4] (setting [21]) it was 387 mg/kg/day; with dog [5] (setting [20]) it was 340 mg/kg/day; in the data set on mouse [6], 455 mg/kg/day; in the data set with rat [7] (setting [23]) it was 474 mg/kg/day. For the same molecule, the NEL with dog [3] (setting [20]) is 1.4 mg/kg/day; with mouse [4] (setting [21]) it was under 38.9 mg/kg/day; with dog [5] (setting [22]), under 3.5 mg/kg/day; in the data set on mouse [6], 226 mg/kg/day; in the data set on rat [7] (setting [24]), under 7.5 mg/kg/day. The NOAEL stood at 19.9 mg/kg/day with dog [3] (setting [20]); 132 mg/kg/day with mouse [4] (systemic / pathology microscopic / liver / hypertrophy + systemic / organ weight / liver / absolute + systemic / organ weight / liver / …); 32.1 mg/kg/day with dog [5] (setting [20]); 226 mg/kg/day in the data set on mouse [6]; 93 mg/kg/day with rat [7] (setting [23]). Also, the LEL with dog [3] (systemic / organ weight / spleen / absolute + systemic / organ weight / spleen / relative to body weight) came to 19.9 mg/kg/day; in the data set with mouse [4] (setting [21]) it was 38.9 mg/kg/day; in the data set on dog [5] (setting [22]) it was 3.5 mg/kg/day; with mouse [6], 455 mg/kg/day; in the data set on rat [7] (setting [24]), 7.5 mg/kg/day.

`CCOC(=O)C(C)OC(=O)c1cc(Oc2ccc(C(F)(F)F)cc2Cl)ccc1[N+](=O)[O-]` (configuration not stated) [Lactofen]: the LEL in the data set with mouse [8] was determined as 1.4 mg/kg/day; in the data set with rat [9] (setting [25]) it was 2.9 mg/kg/day; with rat [10] (setting [26]) it was 26.7 mg/kg/day; in the data set on rat [10] (setting [27]), 3.3 mg/kg/day; in the data set on rat [10] (setting [28]), 26.7 mg/kg/day; in the data set with rat [11] (setting [30]), 150 mg/kg/day. Besides, the LEL with rat [11] (setting [31]) came to 150 mg/kg/day; with rat [12] it was 19 mg/kg/day; in the data set on mouse [13] (setting [32]), 5.7 mg/kg/day; in the data set with dog [14] (setting [33]), 0.79 mg/kg/day. In addition, the LOAEL in the data set with mouse [8] was determined as 1.4 mg/kg/day; with rat [9] (setting [20]), 73.7 mg/kg/day; in the data set on rat [10] (setting [26]) it was 26.7 mg/kg/day; with rat [10] (group: parental, systemic / in life observation / mortality / mortality), 32.9 mg/kg/day; with rat [10] (setting [28]) it was 26.7 mg/kg/day; in the data set with rat [11] (setting [30]), 150 mg/kg/day. Besides, the lowest-observed-adverse-effect level (LOAEL) was 150 mg/kg/day in the data set with rat [11] (setting [31]), 19 mg/kg/day with rat [12], 143 mg/kg/day in the data set on mouse [13] (setting [20]) and 3.96 mg/kg/day in the data set on dog [14] (systemic / organ weight / adrenal gland / absolute + systemic / organ weight / thyroid gland / absolute). In addition, the NEL in the data set with mouse [8] was under 1.4 mg/kg/day; in the data set with rat [9] (setting [25]), under 2.9 mg/kg/day; in the data set with rat [10] (setting [26]) it was 2.7 mg/kg/day; in the data set with rat [10] (setting [27]), under 3.3 mg/kg/day; in the data set with rat [10] (setting [29]) it was 2.7 mg/kg/day; in the data set on rat [11] (setting [30]), 50 mg/kg/day. In addition, the NEL in the data set on rat [11] (setting [31]) was 50 mg/kg/day; in the data set on rat [12], 2 mg/kg/day; in the data set on mouse [13] (setting [32]) it was under 5.7 mg/kg/day; with dog [14] (setting [33]), under 0.79 mg/kg/day. Besides, the NOAEL was under 1.4 mg/kg/day with mouse [8]; 14.1 mg/kg/day in the data set with rat [9] (setting [20]); 2.7 mg/kg/day in the data set with rat [10] (setting [26]); 3.3 mg/kg/day in the data set with rat [10] (group: parental, systemic / in life observation / mortality / mortality + systemic / in life observation / body weight / body weight + systemic / organ …); 2.7 mg/kg/day in the data set with rat [10] (setting [29]); 50 mg/kg/day in the data set with rat [11] (setting [30]). For the same molecule, the no-observed-adverse-effect level (NOAEL) is 50 mg/kg/day in the data set on rat [11] (setting [31]), 2 mg/kg/day with rat [12], 28.6 mg/kg/day with mouse [13] (setting [20]) and 0.79 mg/kg/day with dog [14] (setting [33]).

Regarding `[Na+].[O-][Cl+2]([O-])[O-]` [Sodium chlorate], in the data set with rat [15], the LEL turned out to be 1000 mg/kg/day, the LOAEL came to 1000 mg/kg/day, the NEL turned out to be 100 mg/kg/day and the NOAEL is 100 mg/kg/day.
